Measured values from ChEMBL document CHEMBL3507680, “University of Dundee, Gates Library screen for HepG2 cell viability”.

Assay: Human HepG2 cell viability assay in 384 well format
Format: toxicity, cell-based
Set-up: dose 125 nL, time 70.5 hour; cytotoxicity at 70.5 h: concentration not given beside the values
Settings: HepG2 cells, read-out: Inhibition

Structure (SMILES)	cytotoxicity at 70.5 h [%]
Cn1cc(C(=O)N2C[C@@H]3CN(S(C)(=O)=O)CCO[C@@H]3C2)cn1	-0.664
O=C(c1cscn1)N1CCc2ncc(CN3CCCC3)n2CC1	-8.65
CN1CCOC(C(=O)Nc2ccc3c(c2)nc(C(C)(C)C)n3C)C1 (stereo not given)	-2.12
COc1ccccc1CN(Cc1nc(Cc2ccccc2)no1)C1CC1	-10.7
COc1cccc(CN(C)Cc2nc(C(C)C)no2)c1	14.7
CCN(Cc1ccoc1)C(=O)NC1CCN(CC2CC2)C1 (stereo not given)	-5.67
CC(C)(O)CN1CCN(C(=O)c2cccn2Cc2cccnc2)CC1	-8.17
Cc1ccn2c(=O)cc(CSCC(=O)Nc3nnc(C(C)C)s3)nc2c1	23
O=C(c1ccno1)N1CCC2(CC1)C(=O)N(CC1CC1)c1ccccc12	-17.3
O=C(O)C(c1ccc2c(c1)OCO2)N1CCCC1 (stereo not given)	-0.492
CC(Cn1ccnc1)NC(=O)NCCc1cccnc1 (stereo not given)	-2.45
COc1cc(F)ccc1N1CCN(Cc2nc(C)c(C)o2)CC1	-11.2
CCc1noc(C)c1C(=O)NCCCC(CC)(CC)C1OCCO1	-5.2
Cc1cnc(CN(C)C2CCN(Cc3nnc(C4CC4)o3)C2)o1 (stereo not given)	-4.32
CC(C)(CNC(=O)Nc1cccc(-c2cccs2)c1)C(N)=O	0.351
CN1CCN(CC2CC2)C(=O)c2cnc(N3CC[C@@H](O)C3)nc21	27.1
CC(C)C(C(=O)O)c1cccc(Cl)c1 (stereo not given)	-7.66
Cc1nn(-c2ccccc2)nc1C(=O)NCC(c1ccco1)N(C)C (stereo not given)	-15.6
Cc1[nH]c2ccc(CNC(=O)c3ccc(CN4CCCC4)o3)cc2c1C	-7.28
CNc1cccc(C2CCN(C(C)=O)CC2)n1	-5.62
Cc1nnc(NCCn2nc(C)c(Cl)c2C)o1	-6.66
c1ncc2c(n1)CN(CC1CCCCO1)CC2 (stereo not given)	6.75
CCCn1nccc1-c1cnc(CC2CCN(C(C)=O)C2)cn1 (stereo not given)	-3.63

Structure (SMILES)	cytotoxicity at 70.5 h [%]
NC(=O)NC(=O)CCSCc1cc(F)cc2cccnc12	-29.1
O=S(=O)(CC1CC1)c1ncc(CN2CCSCC2)n1CC1CCCO1 (stereo not given)	-6.13
O=C(CN1CCOCC1)Nc1ncc(Br)cc1Br	-5.32
CCc1ncc(CN2CCC(O)(c3ccccc3F)CC2)cn1	-4.61
Cn1cnc2c1CCN(CCCOc1ccc(C#N)cc1)C2	-10.6
COCCCN1CCCC12CCN(c1ncccn1)CC2	-5.24
CC(C)=CCCC(C)CN1CCC(n2cc(CO)nn2)CC1 (stereo not given)	-4.45
NC(=O)CCn1ccc(NC(=O)c2ccc(OCC3CC3)cc2)n1	-3.84
Nc1ncccc1CN1CCCn2nc(CCC(=O)NC3CC3)cc2C1	-2.41
NS(=O)(=O)c1cnn(-c2ccc(NC(=O)C3CCCCC3)cn2)c1	-0.503
Cc1[nH]c2c(F)cccc2c1CC(=O)N1CCCC(N)CC1 (stereo not given)	14.1
Cc1cc(NC(=O)NC2CCCc3c2cnn3CCO)n(C)n1 (stereo not given)	-1.75
CCNC(=O)CNS(=O)(=O)Cc1cc(-c2ccccc2)no1	2.55
NC(=O)c1ccc(C2CCCN2C(=O)CCc2nc3ccccc3s2)s1 (stereo not given)	-1.87
CC(=O)NC(=O)C1(CCCc2ccncc2)CCN1 (stereo not given)	-2.25
COc1ccc(COCC(=O)N2CCN(CC(C)(C)O)CC2)cc1	-0.338
CC(C)(C)OC(=O)NC(C)(C)c1noc(CSc2nncs2)n1	25.7
CCN(CC)CCSc1nnc(N2CCN(c3ccc(F)cc3)CC2)s1	-5.54
Cc1nc(CN2Cc3cn(C)nc3C(COCC3CC3)C2)cs1 (stereo not given)	14.1
CCn1c(N)nc2cc(C(=O)NCCc3ccccc3F)cnc21	-28.6
CSCCC(C)NC(=O)CCN1C(=O)CCc2cc(F)ccc21 (stereo not given)	-4.19
CC(C)c1n[nH]c(C2CN(C(=O)c3cc(C4CC4)on3)CCO2)n1 (stereo not given)	-11.3
COCC(=O)N1CCCC2(CCN(c3cncnc3)C2=O)C1 (stereo not given)	-8.34

Structure (SMILES)	cytotoxicity at 70.5 h [%]
CCOCC(=O)NCC(CC)(OC)c1ccccc1 (stereo not given)	-12.4
CS(=O)(=O)NC1CCN(C(=O)c2ccc(Br)cc2)C1 (stereo not given)	-7.16
O=C(Nc1cccn(CC(F)(F)F)c1=O)c1ccncc1F	-11.6
Cc1cc(CCC2CN(Cc3ccccc3C(=O)O)CCO2)ncn1 (stereo not given)	-3.08
CN(CC1COc2ccccc2O1)C(=O)NCCCn1ccnc1 (stereo not given)	33.9
Cn1nc(C#N)c2c1CN(C(=O)c1ccco1)CCC2	14.2
Cn1c(C(=O)N2CCC(C(=O)N3CCCC3)CC2)c(Cl)c2ccccc21	-9.31
CC(C)CCN1CCN(C(=O)c2cccnc2-n2cncn2)CC1	-3.48
Cn1ncc2c(N3CCN(CCO)CC3)nc(C3CCCC3)nc21	-14.2
COc1ccc(-c2cc(=O)n3c(n2)CCCCC3)cc1	-10.4
CCCOCC1CCN(C(=O)Cn2cccc(C(F)(F)F)c2=O)C1 (stereo not given)	3.49
COC[C@@H]1CCC[C@]12CN(Cc1cccc(C)n1)CCO2	-14.3
COC(=O)c1ccc(N(C(=O)c2cc(Cl)ccn2)C(C)C)c(C)c1	-2.71
N#Cc1ccc(S(=O)(=O)Nc2cnn(C3CCOCC3)c2)cc1	-1.54
Cn1cnc2c1C(COCC1CCOCC1)CN(C(=O)c1ccco1)C2 (stereo not given)	-8.23
Cc1nc(C)n(CC2CN(CCOc3ccc(C#N)cc3)CCO2)n1 (stereo not given)	-13.3
CCCN1C[C@H]2CC[C@@H]1CN(C(=O)c1ccc(N(C)CCO)cc1)C2	1.16
NS(=O)(=O)CCCNC(=O)c1cnc(-c2ccsc2)s1	-6.58
CCOCC(=O)N1C[C@@H](O)[C@H](N(C)Cc2ccc(OC)cc2)C1	-13.7
CC(C1CC1)N(C)C(=O)c1cnc(-c2ccc3c(c2)OCO3)s1 (stereo not given)	13.8
Cc1nn(CCNC(=O)c2cc(C3CC3)[nH]n2)c(C)c1Cl	3.19
CCN(CC)C(=O)c1nnc2ccc(N3CCOCC3)cc2n1	26.5
Cc1nnc(CN2CCCC2c2cccc(Br)c2)o1 (stereo not given)	-4.5

Structure (SMILES)	cytotoxicity at 70.5 h [%]
CCn1ccnc1CN1CCCN(C(=O)Cc2ccc(C)nc2)CC1	-14.5
COCCc1noc(CN2CC(Cc3ccccc3)CC2=O)n1 (stereo not given)	-20.5
Fc1ccc2c(c1)C1(CCNCC1)CC2NC1CC1 (stereo not given)	14.1
CC(=O)N1CCC(Nc2ccc(Br)cc2C#N)C1 (stereo not given)	4.92
CCOC1COC2(CCN(c3ncc(C)cn3)CC2)C1 (stereo not given)	-2.14
O=C(Nc1ccc(F)c(-n2cccc2)c1)NC1(CCO)CCOCC1	-10.8
NS(=O)(=O)c1cnn(-c2ccc(NC(=O)CC3CCCC3)cn2)c1	-5.14
CCc1nc(CNC(C)Cn2cccn2)cs1 (stereo not given)	-11.9
CCOc1ccc(Cl)c(C(=O)N2CCN(c3cnccn3)CC2)n1	38.9
c1ccc(OCCCNCCn2cccn2)cc1	-0.836
Nc1c(N2CCCCC2)ncnc1N1CCOCC1	1.26
O=C(NCC1CC(=O)N(CCc2ccccc2)C1)c1ccon1 (stereo not given)	-3.55
O=C(Nc1ncn(Cc2cccc(Br)c2)n1)C1CCC1	-13.9
CCc1ccc(C(=O)N2CCN(CCS(C)(=O)=O)CC2)o1	-14.1
CC(C)CCC(=O)NCC(=O)N1CCCCCC1c1ccco1 (stereo not given)	-5.74
Cc1nc(C)n(CC2CCCN(c3ncnc4sccc34)C2)n1 (stereo not given)	29.9
CC(C(=O)N1CCCN(Cc2cnn(C(C)C)c2)CC1)n1ccnc1 (stereo not given)	23.5
COc1ccc(N2CCN(CC[C@H](O)c3ccccc3)CC2=O)cc1	-12.7
Cc1nc2ccccc2c(=O)n1CCCC(=O)N1CCNC(=O)CC1	2.21
NC(=O)C1CCCN(c2ccc(CNC(=O)c3csnn3)cc2)C1 (stereo not given)	-6.98
CNc1nc2c(s1)C(c1ccccc1Cl)CC(=O)N2 (stereo not given)	-21.9
CCN(CC)CCn1ccnc1-c1[nH]cnc1C	3.84
CCCNC(=O)C1CCN(CC2(O)CCC(C)CC2)CC1 (stereo not given)	-3.07

Structure (SMILES)	cytotoxicity at 70.5 h [%]
Cc1c(C(=O)N2CCN(C)[C@@H]3CS(=O)(=O)C[C@@H]32)[nH]c2ccc(F)cc12	-1.69
c1ccc(CN2CCC3(CC2)CC(Oc2cccnc2)C3)nc1	-12.3
Cc1noc(CN2CC(=O)N(C)c3ccccc3C2=O)n1	-8.97
CC1N(C)C(=O)COC12CCN(Cc1ccsc1)CC2 (stereo not given)	4.85
Cc1ccc(C(=O)N2CCSCC2)cc1NC(=O)NCCO	-4.73
Cc1cccc(CS(=O)(=O)c2nnc([C@@H](N)Cc3ccccc3)o2)c1	12.4
Cc1nc(-c2c(-c3ccccc3)ncn2CCCN2CCOCC2)c[nH]1	-8.17
O=C(NCC(F)(F)F)c1coc(COc2cccc(F)c2)n1	14.5
CCc1nc(NS(=O)(=O)c2cccc(F)c2C)no1	7
COc1cc(NC2CCN(C3CCS(=O)(=O)CC3)CC2)ncn1	-20.6
O=C(O)c1cc(-n2cc3c(n2)CCC3)cc(S(=O)(=O)N2CCOCC2)c1	3.53
Cc1nc(C)c(C(=O)N2CCc3nc4sc(C)cc4c(=O)n3CC2)o1	-4.92
CC(C)CN(CC(=O)O)C(=O)c1ccc(F)cc1	4.28
CC(NC1(CNC(=O)NC2CC2)CCOCC1)c1ccccc1 (stereo not given)	14.3
CNC(=O)[C@H]1C[C@@H]2CN(c3cc(OC)ncn3)C[C@@H]2N1C(C)C	15.2
COc1cccc(CN2CC[C@H]3[C@@H](C2)[C@H](c2ccsc2)CN3C(C)=O)c1	28.6
CCN(CC)C(CNCc1ccc(O)cc1)c1ccco1 (stereo not given)	27
Cn1cc(CN2CCOC(CCNC(=O)c3ccsc3)C2)cn1 (stereo not given)	-0.896
Cn1cnnc1C1CCCN(C(=O)NCCOc2ccccc2)C1 (stereo not given)	40.2
c1cnc2[nH]c(C3CCNCC3)c(CN3CCOCC3)c2c1	-1.47
Cc1cc(C(=O)N2CCCC(c3nc(C)no3)C2)on1 (stereo not given)	-10.6
Cn1ccc(C(=O)N2CCCC(c3cc4cccnc4c(O)n3)C2)n1 (stereo not given)	-9.08
CC(C)CNC(=O)C1=NOC2(CCN(Cc3cccc(C#N)c3)C2)C1 (stereo not given)	-1.8
